{"source": "the kinase profiling compilation of Christmann-Franck et al. (2016)", "experiment_in_all_cases": "SelectScreen, TR FRET", "key": {"NEK4 (human)": {"target": "NEK4 (human) (UniProt P51957)"}, "NEK6 (human)": {"target": "NEK6 (human) (UniProt Q9HC98)", "sequence (Q9HC98 whole entry, looked up)": "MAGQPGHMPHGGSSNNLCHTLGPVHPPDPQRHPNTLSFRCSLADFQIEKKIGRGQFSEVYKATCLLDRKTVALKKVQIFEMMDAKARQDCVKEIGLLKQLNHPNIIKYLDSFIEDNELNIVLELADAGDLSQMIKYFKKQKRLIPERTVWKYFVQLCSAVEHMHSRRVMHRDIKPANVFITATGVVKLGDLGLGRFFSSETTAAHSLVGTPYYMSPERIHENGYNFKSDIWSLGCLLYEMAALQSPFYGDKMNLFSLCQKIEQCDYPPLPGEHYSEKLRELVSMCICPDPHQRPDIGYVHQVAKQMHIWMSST"}, "NTRK3 (human)": {"target": "NTRK3 (human) (UniProt Q16288)", "sequence (Q16288 whole entry, looked up)": "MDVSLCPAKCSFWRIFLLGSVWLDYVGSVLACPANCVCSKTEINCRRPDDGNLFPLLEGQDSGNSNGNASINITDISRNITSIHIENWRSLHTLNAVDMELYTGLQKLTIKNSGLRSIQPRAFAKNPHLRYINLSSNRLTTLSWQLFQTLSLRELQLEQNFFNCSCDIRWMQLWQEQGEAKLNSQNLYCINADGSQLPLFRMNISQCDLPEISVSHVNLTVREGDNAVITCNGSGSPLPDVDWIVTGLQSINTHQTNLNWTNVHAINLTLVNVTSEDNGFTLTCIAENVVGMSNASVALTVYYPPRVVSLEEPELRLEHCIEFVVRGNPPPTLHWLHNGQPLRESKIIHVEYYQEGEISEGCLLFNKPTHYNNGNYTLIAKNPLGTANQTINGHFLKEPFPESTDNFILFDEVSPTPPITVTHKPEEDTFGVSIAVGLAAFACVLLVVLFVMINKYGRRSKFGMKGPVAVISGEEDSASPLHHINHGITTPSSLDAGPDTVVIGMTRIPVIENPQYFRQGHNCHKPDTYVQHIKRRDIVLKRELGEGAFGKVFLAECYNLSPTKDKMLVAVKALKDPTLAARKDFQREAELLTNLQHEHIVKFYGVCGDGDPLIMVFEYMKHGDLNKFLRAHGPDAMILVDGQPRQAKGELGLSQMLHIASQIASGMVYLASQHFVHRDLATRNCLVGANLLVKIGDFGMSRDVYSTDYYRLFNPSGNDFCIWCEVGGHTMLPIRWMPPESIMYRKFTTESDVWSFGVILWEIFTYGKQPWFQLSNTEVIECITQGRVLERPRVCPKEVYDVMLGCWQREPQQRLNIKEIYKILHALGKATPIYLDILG"}, "PAK1 (human)": {"target": "PAK1 (human) (UniProt Q13153)", "sequence (Q13153 whole entry, looked up)": "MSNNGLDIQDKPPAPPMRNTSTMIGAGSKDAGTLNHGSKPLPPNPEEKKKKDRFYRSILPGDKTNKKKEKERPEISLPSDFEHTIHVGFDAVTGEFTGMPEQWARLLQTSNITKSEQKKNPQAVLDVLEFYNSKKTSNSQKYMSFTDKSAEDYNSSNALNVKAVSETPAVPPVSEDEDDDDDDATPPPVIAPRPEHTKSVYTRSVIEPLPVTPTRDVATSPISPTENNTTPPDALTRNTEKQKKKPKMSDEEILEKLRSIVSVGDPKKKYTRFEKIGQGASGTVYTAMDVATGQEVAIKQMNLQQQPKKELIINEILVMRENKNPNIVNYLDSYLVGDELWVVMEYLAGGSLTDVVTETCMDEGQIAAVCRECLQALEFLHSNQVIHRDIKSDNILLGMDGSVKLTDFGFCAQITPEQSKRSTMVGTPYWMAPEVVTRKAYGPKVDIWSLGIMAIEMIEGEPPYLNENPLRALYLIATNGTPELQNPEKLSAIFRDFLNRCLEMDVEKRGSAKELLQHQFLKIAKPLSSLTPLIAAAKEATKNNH"}, "PIM1 (human)": {"target": "PIM1 (human) (UniProt P11309)", "sequence (P11309 whole entry, looked up)": "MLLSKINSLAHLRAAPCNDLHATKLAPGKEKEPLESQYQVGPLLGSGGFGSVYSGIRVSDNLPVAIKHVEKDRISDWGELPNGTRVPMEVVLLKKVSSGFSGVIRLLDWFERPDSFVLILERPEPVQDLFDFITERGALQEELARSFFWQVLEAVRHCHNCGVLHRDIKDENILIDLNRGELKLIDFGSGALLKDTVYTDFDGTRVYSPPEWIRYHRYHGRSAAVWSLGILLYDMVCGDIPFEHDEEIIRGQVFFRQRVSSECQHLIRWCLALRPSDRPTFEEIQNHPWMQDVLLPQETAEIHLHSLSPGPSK"}, "PKN1 (human)": {"target": "PKN1 (human) (UniProt Q16512)"}, "PRKCI (human)": {"target": "PRKCI (human) (UniProt P41743)"}, "PRKCQ (human)": {"target": "PRKCQ (human) (UniProt Q04759)"}, "PRKCZ (human)": {"target": "PRKCZ (human) (UniProt Q05513)"}, "ROCK1 (human)": {"target": "ROCK1 (human) (UniProt Q13464)", "sequence (Q13464 whole entry, looked up)": "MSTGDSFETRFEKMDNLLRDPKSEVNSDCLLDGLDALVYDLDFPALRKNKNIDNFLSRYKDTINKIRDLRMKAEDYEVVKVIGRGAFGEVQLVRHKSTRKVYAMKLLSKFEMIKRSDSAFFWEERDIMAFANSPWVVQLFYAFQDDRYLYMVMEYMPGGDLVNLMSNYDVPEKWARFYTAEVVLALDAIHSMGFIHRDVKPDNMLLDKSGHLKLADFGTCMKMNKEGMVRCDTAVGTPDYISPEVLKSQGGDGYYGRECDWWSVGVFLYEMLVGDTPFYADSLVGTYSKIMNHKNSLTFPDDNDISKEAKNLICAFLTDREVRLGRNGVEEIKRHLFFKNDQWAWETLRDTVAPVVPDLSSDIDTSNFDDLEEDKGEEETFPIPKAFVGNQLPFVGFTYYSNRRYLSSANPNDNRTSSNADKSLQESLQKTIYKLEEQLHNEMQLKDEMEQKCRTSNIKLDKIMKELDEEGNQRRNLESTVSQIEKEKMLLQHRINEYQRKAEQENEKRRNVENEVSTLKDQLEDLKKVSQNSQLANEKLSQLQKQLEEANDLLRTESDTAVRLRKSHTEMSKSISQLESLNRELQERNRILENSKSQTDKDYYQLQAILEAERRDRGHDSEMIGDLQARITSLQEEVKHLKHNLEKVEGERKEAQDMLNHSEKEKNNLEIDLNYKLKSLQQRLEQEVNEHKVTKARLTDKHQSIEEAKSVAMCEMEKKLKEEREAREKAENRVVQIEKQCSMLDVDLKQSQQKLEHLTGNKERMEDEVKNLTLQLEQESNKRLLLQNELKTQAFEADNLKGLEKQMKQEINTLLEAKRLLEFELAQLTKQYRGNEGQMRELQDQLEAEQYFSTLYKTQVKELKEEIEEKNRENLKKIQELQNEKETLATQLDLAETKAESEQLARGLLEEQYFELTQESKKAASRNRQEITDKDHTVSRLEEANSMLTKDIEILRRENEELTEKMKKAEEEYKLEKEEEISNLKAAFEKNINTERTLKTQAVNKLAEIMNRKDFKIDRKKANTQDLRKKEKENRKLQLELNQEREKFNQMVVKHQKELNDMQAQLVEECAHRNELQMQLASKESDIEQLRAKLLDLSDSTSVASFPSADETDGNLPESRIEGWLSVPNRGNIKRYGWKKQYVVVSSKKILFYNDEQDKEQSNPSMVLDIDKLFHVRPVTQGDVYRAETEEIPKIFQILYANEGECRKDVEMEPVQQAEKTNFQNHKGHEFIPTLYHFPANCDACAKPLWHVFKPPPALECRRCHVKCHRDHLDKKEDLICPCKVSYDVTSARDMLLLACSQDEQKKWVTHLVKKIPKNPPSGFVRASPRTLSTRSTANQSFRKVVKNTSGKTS"}, "SGK1 (human)": {"target": "SGK1 (human) (UniProt O00141)", "sequence (O00141 whole entry, looked up)": "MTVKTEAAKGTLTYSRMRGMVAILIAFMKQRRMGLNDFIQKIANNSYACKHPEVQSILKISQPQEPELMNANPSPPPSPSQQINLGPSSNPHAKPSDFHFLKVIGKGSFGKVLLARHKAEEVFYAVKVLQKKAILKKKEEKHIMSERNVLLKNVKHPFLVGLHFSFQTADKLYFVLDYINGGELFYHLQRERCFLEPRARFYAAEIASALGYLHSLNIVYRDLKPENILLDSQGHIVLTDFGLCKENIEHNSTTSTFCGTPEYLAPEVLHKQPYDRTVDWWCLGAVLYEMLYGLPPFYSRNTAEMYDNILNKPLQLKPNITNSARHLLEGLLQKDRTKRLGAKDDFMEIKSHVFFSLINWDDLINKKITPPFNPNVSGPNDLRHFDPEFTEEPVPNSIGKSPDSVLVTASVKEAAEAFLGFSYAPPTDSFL"}, "SRC (human)": {"target": "SRC (human) (UniProt P12931)", "sequence (P12931 whole entry, looked up)": "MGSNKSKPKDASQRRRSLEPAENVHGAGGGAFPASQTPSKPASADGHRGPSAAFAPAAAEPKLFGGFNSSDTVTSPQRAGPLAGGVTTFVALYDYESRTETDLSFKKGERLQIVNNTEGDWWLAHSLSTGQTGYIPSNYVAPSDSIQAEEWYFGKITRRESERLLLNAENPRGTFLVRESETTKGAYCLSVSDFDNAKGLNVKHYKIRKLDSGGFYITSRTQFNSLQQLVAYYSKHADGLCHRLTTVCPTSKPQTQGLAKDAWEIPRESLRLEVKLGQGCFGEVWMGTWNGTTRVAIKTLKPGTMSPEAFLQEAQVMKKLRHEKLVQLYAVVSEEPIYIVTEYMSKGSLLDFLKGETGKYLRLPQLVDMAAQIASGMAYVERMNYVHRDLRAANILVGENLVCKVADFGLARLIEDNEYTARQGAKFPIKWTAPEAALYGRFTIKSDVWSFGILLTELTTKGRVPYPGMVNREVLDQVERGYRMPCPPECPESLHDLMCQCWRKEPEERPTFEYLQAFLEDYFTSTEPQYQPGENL"}, "TBK1 (human)": {"target": "TBK1 (human) (UniProt Q9UHD2)"}, "TSSK1B (human)": {"target": "TSSK1B (human) (UniProt Q9BXA7)", "sequence (Q9BXA7 whole entry, looked up)": "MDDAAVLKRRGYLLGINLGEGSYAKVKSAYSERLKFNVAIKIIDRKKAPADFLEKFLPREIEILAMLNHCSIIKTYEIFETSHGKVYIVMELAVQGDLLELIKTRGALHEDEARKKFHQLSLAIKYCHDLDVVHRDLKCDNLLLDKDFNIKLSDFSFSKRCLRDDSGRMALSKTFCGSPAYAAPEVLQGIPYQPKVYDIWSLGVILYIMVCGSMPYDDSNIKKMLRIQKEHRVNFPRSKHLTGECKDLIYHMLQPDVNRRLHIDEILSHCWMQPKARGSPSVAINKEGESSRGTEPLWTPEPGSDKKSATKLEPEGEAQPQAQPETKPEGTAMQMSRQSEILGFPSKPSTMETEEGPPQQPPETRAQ"}}, "data": [{"smiles": "Cn1cc(-c2cnc3ccc4ccc(CC(=O)NCc5ccccn5)cc4c(=O)c3c2)cn1", "values": [{"measurement": "inhibition", "setting": "NEK4 (human); compound 0.1 µM", "result": 10.8, "unit": "%"}, {"measurement": "inhibition", "setting": "NEK4 (human); compound 1.0 µM", "result": 13.5, "unit": "%"}, {"measurement": "inhibition", "setting": "NEK4 (human); compound 10.0 µM", "result": 37.8, "unit": "%"}, {"measurement": "inhibition", "setting": "NEK6 (human); compound 0.1 µM", "result": 5.2, "unit": "%"}, {"measurement": "inhibition", "setting": "NEK6 (human); compound 1.0 µM", "result": -7.4, "unit": "%"}, {"measurement": "inhibition", "setting": "NEK6 (human); compound 10.0 µM", "result": 9.6, "unit": "%"}, {"measurement": "inhibition", "setting": "NTRK3 (human); compound 0.1 µM", "result": 18.8, "unit": "%"}, {"measurement": "inhibition", "setting": "NTRK3 (human); compound 1.0 µM", "result": 34.5, "unit": "%"}, {"measurement": "inhibition", "setting": "NTRK3 (human); compound 10.0 µM", "result": 77.1, "unit": "%"}, {"measurement": "inhibition", "setting": "PAK1 (human); compound 0.1 µM", "result": 19.6, "unit": "%"}, {"measurement": "inhibition", "setting": "PAK1 (human); compound 1.0 µM", "result": 18.5, "unit": "%"}, {"measurement": "inhibition", "setting": "PAK1 (human); compound 10.0 µM", "result": -12.1, "unit": "%"}, {"measurement": "inhibition", "setting": "PIM1 (human); compound 0.1 µM", "result": 6, "unit": "%"}, {"measurement": "inhibition", "setting": "PIM1 (human); compound 1.0 µM", "result": 5.4, "unit": "%"}, {"measurement": "inhibition", "setting": "PIM1 (human); compound 10.0 µM", "result": 23.6, "unit": "%"}, {"measurement": "inhibition", "setting": "PKN1 (human); compound 0.1 µM", "result": 12.2, "unit": "%"}, {"measurement": "inhibition", "setting": "PKN1 (human); compound 1.0 µM", "result": 13.6, "unit": "%"}, {"measurement": "inhibition", "setting": "PKN1 (human); compound 10.0 µM", "result": -14.2, "unit": "%"}, {"measurement": "inhibition", "setting": "PRKCI (human); compound 0.1 µM", "result": 10.5, "unit": "%"}, {"measurement": "inhibition", "setting": "PRKCI (human); compound 1.0 µM", "result": 10.2, "unit": "%"}, {"measurement": "inhibition", "setting": "PRKCI (human); compound 10.0 µM", "result": 8.8, "unit": "%"}, {"measurement": "inhibition", "setting": "PRKCQ (human); compound 0.1 µM", "result": 7.2, "unit": "%"}, {"measurement": "inhibition", "setting": "PRKCQ (human); compound 1.0 µM", "result": 7.1, "unit": "%"}, {"measurement": "inhibition", "setting": "PRKCQ (human); compound 10.0 µM", "result": 7.7, "unit": "%"}, {"measurement": "inhibition", "setting": "PRKCZ (human); compound 0.1 µM", "result": 9.2, "unit": "%"}, {"measurement": "inhibition", "setting": "PRKCZ (human); compound 1.0 µM", "result": 9.9, "unit": "%"}, {"measurement": "inhibition", "setting": "PRKCZ (human); compound 10.0 µM", "result": 6.9, "unit": "%"}, {"measurement": "inhibition", "setting": "ROCK1 (human); compound 0.1 µM", "result": 0, "unit": "%"}, {"measurement": "inhibition", "setting": "ROCK1 (human); compound 1.0 µM", "result": 2.5, "unit": "%"}, {"measurement": "inhibition", "setting": "ROCK1 (human); compound 10.0 µM", "result": 10.9, "unit": "%"}, {"measurement": "inhibition", "setting": "SGK1 (human); compound 0.1 µM", "result": 10.9, "unit": "%"}, {"measurement": "inhibition", "setting": "SGK1 (human); compound 1.0 µM", "result": 17.4, "unit": "%"}, {"measurement": "inhibition", "setting": "SGK1 (human); compound 10.0 µM", "result": 49.8, "unit": "%"}, {"measurement": "inhibition", "setting": "SRC (human); compound 0.1 µM", "result": 3.7, "unit": "%"}, {"measurement": "inhibition", "setting": "SRC (human); compound 1.0 µM", "result": 7.4, "unit": "%"}, {"measurement": "inhibition", "setting": "SRC (human); compound 10.0 µM", "result": 15, "unit": "%"}, {"measurement": "inhibition", "setting": "TBK1 (human); compound 0.1 µM", "result": -1.6, "unit": "%"}, {"measurement": "inhibition", "setting": "TBK1 (human); compound 1.0 µM", "result": 7.8, "unit": "%"}, {"measurement": "inhibition", "setting": "TBK1 (human); compound 10.0 µM", "result": 33.2, "unit": "%"}, {"measurement": "inhibition", "setting": "TSSK1B (human); compound 0.1 µM", "result": 15.5, "unit": "%"}, {"measurement": "inhibition", "setting": "TSSK1B (human); compound 1.0 µM", "result": 11.4, "unit": "%"}, {"measurement": "inhibition", "setting": "TSSK1B (human); compound 10.0 µM", "result": 24.9, "unit": "%"}]}]}
